Earlier results on 1 compound are cited in patent US20130210031A1 (priority 2010, published 2013).

Each structure is given as a SMILES string.

The target of this data set is EF (Bacillus anthracis, UniProt P40136).
Chain of EF (P40136 whole entry, looked up): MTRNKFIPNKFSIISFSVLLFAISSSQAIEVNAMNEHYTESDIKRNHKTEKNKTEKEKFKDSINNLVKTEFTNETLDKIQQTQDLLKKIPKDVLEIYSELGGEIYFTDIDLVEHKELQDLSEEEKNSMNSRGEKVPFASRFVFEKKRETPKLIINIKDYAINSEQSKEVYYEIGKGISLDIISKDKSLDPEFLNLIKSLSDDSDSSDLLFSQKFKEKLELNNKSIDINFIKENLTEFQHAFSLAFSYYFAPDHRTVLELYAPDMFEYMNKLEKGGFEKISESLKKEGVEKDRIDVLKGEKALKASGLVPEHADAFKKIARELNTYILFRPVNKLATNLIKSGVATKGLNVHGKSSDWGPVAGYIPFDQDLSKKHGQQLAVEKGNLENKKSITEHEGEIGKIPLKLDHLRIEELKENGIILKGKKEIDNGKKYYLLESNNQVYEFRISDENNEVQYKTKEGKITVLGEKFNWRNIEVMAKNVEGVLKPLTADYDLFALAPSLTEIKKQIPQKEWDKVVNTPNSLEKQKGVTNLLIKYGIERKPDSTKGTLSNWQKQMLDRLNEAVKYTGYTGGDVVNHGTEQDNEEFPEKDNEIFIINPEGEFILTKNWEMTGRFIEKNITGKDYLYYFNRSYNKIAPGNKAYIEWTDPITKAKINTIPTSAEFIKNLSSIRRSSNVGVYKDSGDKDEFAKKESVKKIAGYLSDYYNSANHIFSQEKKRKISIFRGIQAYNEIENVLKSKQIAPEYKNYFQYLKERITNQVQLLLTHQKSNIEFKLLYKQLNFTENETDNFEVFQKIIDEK

Regarding `CC(C)(C)C(=O)OCOP(=O)(COCCn1cnc2c(N)ncnc21)OCOC(=O)C(C)(C)C` [adefovir dipivoxil], the EF inhibitor potency entry is recorded as “potent EF inhibitor”.
